Experimental data from US10993955B2, “Medicament for use in treating diabetes” (Shandong Zhonghai Pharmaceutical CO. LTD, priority 2016, dated 2021).

Tested on: diabetic patients
Assay: Therapeutic effect in diabetic patients (blood glucose, urine glucose), 3 months treatment
Assay type: in vivo, human
Description: The medicament hereof is used to compare the therapeutic effects in diabetic patients, and the details are as follows:
The applicant has divided 100 diabetic patients into treatment group. Among these patients, 6 are aged 16 to 30 years old, 14 are 31 to 45 years old, 28 are 46 to 60 years old, and 52 are 61 to 75 years old.
During the treatment, the patients in the treatment group discontinue the administration of any other medicaments, and only take the medicament described in Embodiment 3 hereof, once in the morning and evening, 2 g each time; the patients in the control group take D-860 Rastinon according to the package insert, and the patients in treatment group and the control group of the invention were treated and observed for 3 months, and the results are as follows: […]

[1] = diabetic patients aged 16-30, after 3 months treatment
[2] = diabetic patients aged 31-45, after 3 months treatment
[3] = diabetic patients aged 46-60, after 3 months treatment
[4] = diabetic patients aged 61-75, after 3 months treatment

## CCCCNC(=O)NS(=O)(=O)c1ccc(C)cc1 [D-860 Rastinon]
[1]
  Blood sugar: 6.2 mmol/L
  Glucose in urine: 1.0 mmol/L
[2]
  Blood sugar: 6.5 to 6.7 mmol/L
  Glucose in urine: 28.6 to 32.2 mmol/L
[3]
  Blood sugar: 7.3 to 7.6 mmol/L
  Glucose in urine: 31 to 35 mmol/L
[4]
  Blood sugar: 9.0 to 9.2 mmol/L
  Glucose in urine: 35 to 58 mmol/L
